This is an account of results in article PMC11424024 (Methods in enzymology, 2024).

The target of experiment [1] is ScoE (Streptomyces coeruleorubidus, UniProt A0A3B6UEU3). Put plainly: LC-HRMS. The format is biochemical. Conditions: α-KG, Fe(II); no INBA formed, only a trace of 2.
Experiment [2] deals with Rv0097 (Mycobacterium tuberculosis, UniProt P9WG83).
Sequence of Rv0097 (P9WG83 whole entry): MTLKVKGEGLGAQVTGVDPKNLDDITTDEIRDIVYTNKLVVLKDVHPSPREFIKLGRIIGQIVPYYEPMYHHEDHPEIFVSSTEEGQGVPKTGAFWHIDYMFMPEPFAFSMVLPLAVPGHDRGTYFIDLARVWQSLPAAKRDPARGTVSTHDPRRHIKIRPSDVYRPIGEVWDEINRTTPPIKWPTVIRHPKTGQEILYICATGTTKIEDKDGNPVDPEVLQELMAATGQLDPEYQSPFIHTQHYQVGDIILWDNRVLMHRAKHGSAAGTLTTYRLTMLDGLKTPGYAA

As to `C[C@H](CC(=O)O)NCC(=O)O` [CABA, (R)-3-((carboxymethyl)amino)butanoic acid], in experiment [1], the “LC-HRMS; glyoxylate derivatization with 2-nitrophenylhydrazine” value is “Y96F ScoE mutant revealed that it was unable to synthesize INBA from CABA”.

As to `CCCCCCCC(CC(=O)O)NCC(=O)O` (racemic) [CADA, 3-[(carboxymethyl)amino]decanoic acid], the “LC-HRMS of INDA formation” value in experiment [2] is recorded as “We reconstituted the activity of Rv0097 using the surrogate substrate CADA”.
